# Laboratory results taken from paper PMC7377239, “Cardiovascular Effects of Polychlorinated Biphenyls and Their Major Metabolites” (Environmental Health Perspectives, 2020).
# Where two headings read alike, the source gives them in different places.
# Tested on: iCell cardiomyocytes (human iPSC-derived cardiomyocytes)
# Assay: Intracellular Ca2+ flux / beating parameters in iCell cardiomyocytes (FLIPR tetra), 90 min or 24 h
# Assay type: cell-based
# Details: for activity at 0.01 µM / activity at 0.1 µM / activity at 1 µM / activity at 10 µM / activity at 100 µM: Homo sapiens, Cardiomyocyte, 0.00 µM = 100.00; for activity at 0.1 µM: 0.10 µM
# Outline: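 PODs were defined as the concentration crossing one SD of the vehicle-control means (0.5% DMSO) on four-parameter logistic fits of Ca2+ trace metrics (peak height, frequency, peak-spacing CV, decay/rise ratio). Traces came from 100 s, 8 Hz FLIPR reads at 37 °C on calcium-dye-loaded iCell cardiomyocytes. Before reading, cells were treated for 90 min or 24 h from 5× chemical plates spanning 0.05–500 µM, in triplicate.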
# [1] = 1.5 h, read-out: cm.amp.avg.90min
# [2] = 1.5 h, read-out: cm.amp.cv.90min
# [3] = 1.5 h, read-out: cm.decay.rise.90min
# [4] = 1.5 h, read-out: cm.spacing.cv.90min
# [5] = 24 h, read-out: cm.amp.avg.24hrs
# [6] = 24 h, read-out: cm.amp.cv.24hrs
# [7] = 24 h, read-out: cm.decay.rise.24hrs
# [8] = 24 h, read-out: cm.spacing.cv.24hrs
smiles,measurement,setting,value
COc1ccc(-c2ccc(Cl)cc2)cc1 [4'-OMe PCB3],activity at 0.01 µM,[1],96.9%
same,activity at 0.01 µM,[2],88.9%
same,activity at 0.01 µM,"1.5 h, read-out: cm.bpm.90min",103%
same,activity at 0.01 µM,[3],99.4%
same,activity at 0.01 µM,[4],117%
same,activity at 0.1 µM,[1],93.5%
same,activity at 0.1 µM,[2],102%
same,activity at 0.1 µM,"1.5 h, read-out: cm.bpm.90min",100%
same,activity at 0.1 µM,[3],102%
same,activity at 0.1 µM,[4],99.4%
same,activity at 1 µM,[1],106%
same,activity at 1 µM,[2],117%
same,activity at 1 µM,"1.5 h, read-out: cm.bpm.90min",96.5%
same,activity at 1 µM,[3],95%
same,activity at 1 µM,[4],92%
same,activity at 10 µM,[1],103%
same,activity at 10 µM,[2],96%
same,activity at 10 µM,"1.5 h, read-out: cm.bpm.90min",107%
same,activity at 10 µM,[3],95.2%
same,activity at 10 µM,[4],96.4%
same,activity at 100 µM,[1],83.2%
same,activity at 100 µM,[2],175%
same,activity at 100 µM,"1.5 h, read-out: cm.bpm.90min",208%
same,activity at 100 µM,[3],94.6%
same,activity at 100 µM,[4],140%
same,activity at 0.01 µM,[5],135%
same,activity at 0.01 µM,[6],92.2%
same,activity at 0.01 µM,"24 h, read-out: cm.bpm.24hrs",111%
same,activity at 0.01 µM,[7],98%
same,activity at 0.01 µM,[8],116%
same,activity at 0.1 µM,[5],30.6%
same,activity at 0.1 µM,[6],60.1%
same,activity at 0.1 µM,"24 h, read-out: cm.bpm.24hrs",50.6%
same,activity at 0.1 µM,[7],49%
same,activity at 0.1 µM,[8],49.7%
same,activity at 1 µM,[5],81.2%
same,activity at 1 µM,[6],110%
same,activity at 1 µM,"24 h, read-out: cm.bpm.24hrs",95.5%
same,activity at 1 µM,[7],98.7%
same,activity at 1 µM,[8],85.6%
same,activity at 10 µM,[5],94.7%
same,activity at 10 µM,[6],93.1%
same,activity at 10 µM,"24 h, read-out: cm.bpm.24hrs",119%
same,activity at 10 µM,[7],90.5%
same,activity at 10 µM,[8],112%
same,activity at 100 µM,[5],30.7%
same,activity at 100 µM,[6],58%
same,activity at 100 µM,"24 h, read-out: cm.bpm.24hrs",81.2%
same,activity at 100 µM,[7],38.5%
same,activity at 100 µM,[8],76.1%
"COc1ccc(-c2ccc(Cl)cc2)cc1 [4'-OMe-PCB 3, 4′-methoxy-4-chlorobiphenyl]",inotropic effect (cell beating parameters),"iPSC-CMs, concentration-response 0.01-100 μM, 90 min and 24 h",positive inotropic effects
